Patent US8962648B2, “Tricyclic compounds and PBK inhibitors containing the same” (OncoTherapy Science, Inc., priority 2010, dated 2015)
Counter-ions that a name gives are not always drawn. Like-named read-outs stand apart in the source and are kept apart here.

Experiments:
[1] = molecular target: PBK (Homo sapiens (Human), UniProt Q96KB5); test: Kinase assay (IMAP fluorescence polarization, FITC-labeled histone H3 peptide); type: biochemical
Protocol: PBK activity was determined in the presence or absence of compounds using fluorescein isothiocyanate-labeled (FITC-labeled) histone H3 peptide as a substrate. […] The serially diluted compounds, 0.8 ng/micro-L PBK (Carna Biosciences) and 100 nM FITC-labeled histone H3 peptide were reacted in a reaction buffer (20 mM HEPES, 0.01% Tween-20, 0.3 mM MgCl2, 2 mM dithiothreitol, 50 micro-M ATP, pH 7.4) at room temperature for 1 hour. The reaction was stopped by the addition of three fold assay volume of progressive binding solution. […] IC50 values were calculated by nonlinear four parameter fit using SigmaPlot, version 10.0 (Systat Software, Inc.).

[2] = tested on: A549 cells; test: Cell-based assay, cellular growth (Cell Counting Kit-8, 72 hours)
Protocol: (§1) 100 micro-L of cell suspension was seeded onto 96-well microtiter plate (ViewPlate-96FTC, PerkinElmer). […] Cellular growth was determined using Cell Counting Kit-8 (DOJINDO) at 72 hours after the exposure of the candidate inhibitors. […] Accurate IC50 values were calculated as described previously.

[3] = tested on: BT-549 cells; test: as above; conditions: Homo sapiens, BT549 cells
Protocol: as §1

[4] = tested on: T47D cells; test: as above
Protocol: as §1

[5] = tested on: HT-1197 cells; test: Cell-based assay, cellular growth (Cell Counting Kit-8, 72 hours), PBK-negative control cells
Protocol: as §1

[6] = PBK 0.8 ng/micro-L, 50 micro-M ATP, 100 nM FITC-labeled histone H3 peptide, room temperature 1 hour
[7] = Homo sapiens, HT1197 cells (PBK-negative control)
[8] = PBK 0.8 ng/micro-L, 50 micro-M ATP, 100 nM FITC-labeled histone H3 peptide, room temperature 1 hour, hydrobromide
[9] = HT1197 cells (PBK-negative control), hydrobromide

PBK, sequence (Q96KB5 whole entry): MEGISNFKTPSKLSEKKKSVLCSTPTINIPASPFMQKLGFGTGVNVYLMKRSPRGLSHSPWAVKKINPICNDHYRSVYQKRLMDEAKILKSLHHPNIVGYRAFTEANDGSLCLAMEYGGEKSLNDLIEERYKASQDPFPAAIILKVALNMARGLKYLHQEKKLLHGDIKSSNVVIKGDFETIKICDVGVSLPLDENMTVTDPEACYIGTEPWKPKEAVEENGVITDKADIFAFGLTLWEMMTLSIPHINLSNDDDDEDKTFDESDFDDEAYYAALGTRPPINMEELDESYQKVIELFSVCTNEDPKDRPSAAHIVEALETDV

IC50 ([2]; Homo sapiens, A549, 72 h)	IC50 [3]	IC50 ([4]; Homo sapiens, T47D, 72 h)	IC50 [1, 6]	Structure (SMILES)	IC50 [1]	IC50 ([5]; Homo sapiens, HT1197, 72 h)	further results
0.17 µM	0.17 µM	0.32 µM	0.0013 µM	CN[C@H](C)c1ccc(-c2c(O)ccc3[nH]c(=O)c4sccc4c23)cc1 [Compound 1052, (R)-8-hydroxy-9-(4-(1-(methylamino)ethyl)phenyl)thieno[2,3-c]quinolin-4(5H)-one hydrochloride]	–	0.45 µM	–
0.11 µM	0.14 µM	0.29 µM	0.042 µM	C[C@H](c1ccc(-c2c(O)cc(Cl)c3[nH]c(=O)c4sccc4c23)cc1)N(C)C [Compound 1126, (R)-6-chloro-9-(4-(1-(dimethylamino)ethyl)phenyl)-8-hydroxythieno [2,3-c]quinolin-4(5H)-one hydrochloride]	–	0.32 µM	–
0.09 µM	0.097 µM	0.19 µM	0.014 µM	CN[C@H](C)c1ccc(-c2c(O)cc(Cl)c3[nH]c(=O)c4sccc4c23)cc1 [Compound 1132, (R)-6-chloro-8-hydroxy-9-(4-(1-(methylamino)ethyl)phenyl)thieno[2,3-c]quinolin-4(5H)-one hydrochloride]	–	0.32 µM	–
0.035 µM	0.032 µM	0.057 µM	0.0086 µM	CC(CN)c1ccc(-c2c(O)cc(Cl)c3[nH]c(=O)c4sccc4c23)cc1 (stereo not shown) [Compound 1136, 9-(4-(1-aminopropan-2-yl)phenyl)-6-chloro-8-hydroxythieno[2,3-c]quinolin-4(5H)-one hydrochloride]	–	0.18 µM	–
0.21 µM	0.17 µM	0.25 µM	0.045 µM	NCCc1ccc(-c2c(O)cc(Br)c3[nH]c(=O)c4sccc4c23)cc1 [Compound 1142, 9-(4-(2-aminoethyl)phenyl)-6-bromo-8-hydroxythieno[2,3-c]quinolin-4(5H)-one hydrochloride]	–	1 µM	–
0.017 µM	0.013 µM	0.026 µM	0.0044 µM	C[C@@H](CN)c1ccc(-c2c(O)cc(Cl)c3[nH]c(=O)c4sccc4c23)cc1 [Compound 1166, (R)-9-(4-(1-aminopropan-2-yl)phenyl)-6-chloro-8-hydroxythieno[2,3-c]quinolin-4(5H)-one hydrochloride]	–	0.12 µM	–

Continued, compound first:

Structure (SMILES)	IC50 ([2]; Homo sapiens, A549, 72 h)	IC50 [3]	IC50 ([4]; Homo sapiens, T47D, 72 h)	IC50 [1, 6]	IC50 [1]	IC50 ([5]; Homo sapiens, HT1197, 72 h)	further results
CC(N)c1ccc(-c2c(O)cc(Cl)c3[nH]c(=O)c4sccc4c23)cc1 (stereo not shown) [Compound 1041, 9-(4-(1-aminoethyl)phenyl)-6-chloro-8-hydroxythieno[2,3-c]quinolin-4(5H)-one hydrochloride]	0.16 µM	0.19 µM	0.34 µM	–	0.012 µM	0.65 µM	–
C[C@@H](N)c1ccc(-c2c(O)cc(Cl)c3[nH]c(=O)c4sccc4c23)cc1 [Compound 1081, (R)-9-(4-(1-aminoethyl)phenyl)-6-chloro-8-hydroxythieno[2,3-c]quinolin-4(5H)-one hydrochloride]	0.1 µM	0.086 µM	0.17 µM	–	0.0086 µM	0.39 µM	–
CC(CN(C)C)c1ccc(-c2c(O)ccc3[nH]c(=O)c4sccc4c23)cc1 (stereo not shown) [Compound 1112, 9-(4-(1-(dimethylamino)propan-2-yl)phenyl)-8-hydroxythieno[2,3-c]quinolin-4(5H)-one hydrochloride]	–	0.21 µM	–	–	0.0033 µM	–	IC50 ([2]; Homo sapiens): 0.25 µM; IC50 ([4]; Homo sapiens): 0.47 µM; IC50 [5, 7]: 0.64 µM
NCCc1ccc(-c2c(O)cc(Cl)c3[nH]c(=O)c4sccc4c23)cc1 [Compound 1133, 9-(4-(2-aminoethyl)phenyl)-6-chloro-8-hydroxythieno[2,3-c]quinolin-4(5H)-one hydrochloride]	0.18 µM	0.15 µM	0.23 µM	–	0.02 µM	0.87 µM	–
COc1ccc2[nH]c(=O)c3sccc3c2c1-c1ccc(S(=O)(=O)NCCCl)cc1 [Compound 1139, N-(2-chloroethyl)-4-(8-methoxy-4-oxo-4,5-dihydrothieno[2,3-c]quinolin-9-yl)benzenesulfonamide]	–	0.017 µM	–	0.07 µM	–	–	IC50 ([2]; Homo sapiens): 0.023 µM; IC50 ([4]; Homo sapiens): 0.2 µM; IC50 [5, 7]: 14 µM
COc1ccc2[nH]c(=O)c3sccc3c2c1-c1ccc([C@@H](C)CN)cc1 [Compound 1161, (R)-9-(4-(1-aminopropan-2-yl)phenyl)-8-methoxythieno[2,3-c]quinolin-4(5H)-one hydrochloride]	0.27 µM	0.22 µM	0.45 µM	0.002 µM	–	0.82 µM	–
Cc1cc(O)c(-c2ccc([C@H](C)CN)c(F)c2)c2c1[nH]c(=O)c1sccc12 [Compound 1304, (S)-9-(4-(1-aminopropan-2-yl)-3-fluorophenyl)-8-hydroxy-6-methylthieno[2,3-c]quinolin-4(5H)-one hydrobromide]	–	–	–	–	–	–	IC50 [1, 8]: 0.013 µM; IC50 ([2]; hydrobromide): 0.099 µM; IC50 ([4]; hydrobromide): 0.12 µM; IC50 [5, 9]: 0.34 µM
CNC[C@H](C)c1ccc(-c2c(O)cc(C)c3[nH]c(=O)c4sccc4c23)cc1 [Compound 1306, (R)-8-hydroxy-6-methyl-9-(4-(1-(methylamino)propan-2-yl)phenyl)thieno[2,3-c]quinolin-4(5H)-one hydrochloride]	–	–	–	–	–	–	IC50 ([1]; PBK 0.8 ng/micro-L, 50 micro-M ATP, 100 nM FITC-labeled histone H3 peptide, room temperature 1 hour, hydrochloride): 0.0073 µM; IC50 ([2]; hydrochloride): 0.02 µM; IC50 ([4]; hydrochloride): 0.035 µM; IC50 ([5]; HT1197 cells (PBK-negative control), hydrochloride): 0.073 µM
Cc1cc(O)c(-c2ccc([C@@H](C)CN)c(F)c2)c2c1[nH]c(=O)c1sccc12 [Compound 1319, (R)-9-(4-(1-aminopropan-2-yl)-3-fluorophenyl)-8-hydroxy-6-methylthieno[2,3-c]quinolin-4(5H)-one hydrobromide]	–	–	–	–	–	–	IC50 [1, 8]: 0.0034 µM; IC50 ([2]; hydrobromide): 0.014 µM; IC50 ([4]; hydrobromide): 0.016 µM; IC50 [5, 9]: 0.054 µM
Cc1cc(O)c(-c2ccc([C@@H](C)CN(C)C)cc2)c2c1[nH]c(=O)c1sccc12 [Compound 1324, (R)-9-(4-(1-(dimethylamino)propan-2-yl)phenyl)-8-hydroxy-6-methylthieno[2,3-c]quinolin-4(5H)-one hydrochloride]	–	0.03 µM	–	–	–	–	IC50 ([2]; Homo sapiens): 0.024 µM; IC50 ([4]; Homo sapiens): 0.066 µM
CCN(C)C[C@H](C)c1ccc(-c2c(O)cc(C)c3[nH]c(=O)c4sccc4c23)cc1 [Compound 1379, (R)-9-(4-(1-(ethyl(methyl)amino)propan-2-yl)phenyl)-8-hydroxy-6-methylthieno[2,3-c]quinolin-4(5H)-one hydrochloride]	0.11 µM	–	0.28 µM	–	0.076 µM	0.31 µM	–
CC[C@@H](CNC)c1ccc(-c2c(O)cc(C)c3[nH]c(=O)c4sccc4c23)cc1 [Compound 1380, (R)-8-hydroxy-6-methyl-9-(4-(1-(methylamino)butan-2-yl)phenyl)thieno[2,3-c]quinolin-4(5H)-one hydrochloride]	0.096 µM	–	0.24 µM	–	0.085 µM	0.37 µM	–
Cc1cc(O)c(-c2ccc([C@H](C)CN(C)C)c(F)c2)c2c1[nH]c(=O)c1sccc12 [Compound 1399, (S)-9-(4-(1-(dimethylamino)propan-2-yl)-3-fluorophenyl)-8-hydroxy-6-methylthieno[2,3-c]quinolin-4(5H)-one hydrochloride]	0.18 µM	–	0.45 µM	–	0.058 µM	0.47 µM	–
Cc1cc(O)c(-c2ccc(N(C)CCN)cc2)c2c1[nH]c(=O)c1sccc12 [Compound 1400, 9-(4-((2-aminoethyl)(methyl)amino)phenyl)-8-hydroxy-6-methylthieno[2,3-c]quinolin-4(5H)-one hydrochloride]	0.9 µM	–	1.4 µM	0.06 µM	–	2.8 µM	–
